Consider 20 compounds from PMC12242667, “Attenuation of 6‑OHDA-Induced Neurotoxicity by 1,2,3-Triazole-Based Sulfonamides through SIRT1 Activity” (ACS Omega, 2025).

Data set [1] has as its system normal embryonic lung (MRC-5) cell line. Put plainly: Cytotoxicity on MRC-5 cell line, MTT assay. Type of data set: cell-based. The following applies: Homo sapiens, MRC5, MRC-5 cells, 48 h incubation. The method, then:
Normal embryonic lung MRC-5 cells and neuroblastoma SH-SY5Y cells from the American Type Culture Collection (Manassas, VA, USA) were maintained in DMEM with 10% heat-inactivated FBS and 1% penicillin-streptomycin at 37 °C in humidified air containing 5% carbon dioxide.
Cytotoxicity of 1,2,3-triazole-based sulfonamides was evaluated by using a normal embryonic lung (MRC-5) cell line. The MRC-5 cells were cultured in 96-well microtiter plates (Corning Inc., NY, USA) at 5,000–20,000 cells/well and incubated for 24 h at 37 °C in humidified air containing 5% carbon dioxide. Subsequently, various concentrations of 1,2,3-triazole derivatives, doxorubicin (used as a positive control), and DMSO (used as a negative control) were added and incubated for an additional 48 h. MTT reagent (0.5 mg/mL in medium) was added for cell staining and incubated for 4 h. Then, the remaining formazan was dissolved in DMSO by sonication. The absorbance of the test wavelength of 550 nm and the reference wavelength of 650 nm was analyzed with a microplate reader (Molecular Devices, CA, USA). IC50 of each compound was determined as the concentration of the compound that inhibits cell growth by 50%.
Background: Tetrazolium assays rely on reduction of a dye to a coloured formazan, in cell work by metabolically active cells.

The next data set concerns the target T1, SIRT1 (Homo sapiens, UniProt Q96EB6).
T1 construct: endogenous in cells; host or cells: SH-SY5Y
T1 sequence (Q96EB6 1-747): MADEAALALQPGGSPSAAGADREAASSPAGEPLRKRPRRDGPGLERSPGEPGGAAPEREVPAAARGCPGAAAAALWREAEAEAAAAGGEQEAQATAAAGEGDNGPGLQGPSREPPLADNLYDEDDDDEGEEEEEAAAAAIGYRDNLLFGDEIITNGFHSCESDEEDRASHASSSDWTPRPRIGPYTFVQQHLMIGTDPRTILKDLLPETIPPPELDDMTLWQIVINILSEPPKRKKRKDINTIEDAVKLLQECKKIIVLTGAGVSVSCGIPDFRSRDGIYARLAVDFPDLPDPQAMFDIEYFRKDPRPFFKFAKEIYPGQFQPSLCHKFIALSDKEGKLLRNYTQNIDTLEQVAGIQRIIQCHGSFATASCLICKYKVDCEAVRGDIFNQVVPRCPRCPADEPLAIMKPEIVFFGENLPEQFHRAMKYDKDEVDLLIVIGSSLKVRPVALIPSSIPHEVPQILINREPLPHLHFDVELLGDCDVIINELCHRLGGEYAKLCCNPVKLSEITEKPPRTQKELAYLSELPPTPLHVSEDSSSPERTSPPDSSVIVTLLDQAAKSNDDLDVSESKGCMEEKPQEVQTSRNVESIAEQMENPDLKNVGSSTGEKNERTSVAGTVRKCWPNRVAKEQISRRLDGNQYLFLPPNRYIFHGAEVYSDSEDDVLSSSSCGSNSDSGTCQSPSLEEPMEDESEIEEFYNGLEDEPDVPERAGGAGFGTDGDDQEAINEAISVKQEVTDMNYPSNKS
Put plainly: SIRT1 deacetylase activity in SH-SY5Y cell lysate. Type of data set: cell-based. The settings on record: 5 μM pretreatment 3 h, then 50 μM 6-OHDA 24 h, relative to control. As for the experimental part:
SH-SY5Y neuronal cells at 1.0 × 10^5 cells/mL were seeded into 6-well plates for 24 h. Then, the cells were pretreated with 5 μM 1,2,3-triazole-based sulfonamide derivatives for 3 h before neurotoxicity was induced with 50 μM 6-OHDA for another 24 h. The cell culture medium was rinsed off with cold 1X PBS. The cells were incubated at 4 °C with 1X RIPA buffer containing a protease inhibitor for 20 min before being harvested using a cell scraper, followed by centrifugation at 12,000 rpm for 20 min. Protein concentrations were measured using the Bradford protein assay, and SIRT1 activity in the cells was determined following the manufacturer’s instructions. The increase in SIRT1 enzyme activity was measured by fluorescence intensity at an excitation wavelength of 340 nm and an emission wavelength of 445 nm. SIRT1 enzyme activity was statistically analyzed as a percentage relative to the control group.

The test system of data set [2] is 6-OHDA-induced SH-SY5Y neuronal cells. Put plainly: Neuroprotection: cell viability of 6-OHDA-induced SH-SY5Y cells, MTT assay. Type of data set: cell-based, Human. The settings on record: then 50 μM 6-OHDA 24 h. As for the experimental part: Prior to investigations, 1.0 × 10^5 SH-SY5Y neuronal cells/mL were seeded into 96-well plates for 24 h. To determine the optimal concentration of 6-OHDA for inducing neurotoxicity, cells were seeded into 96-well plates for 24 h and treated with various concentrations of 6-OHDA ranging from 25 to 125 μM for another 24 h. For the evaluation of the cytotoxicity of 1,2,3-triazole-based sulfonamide derivatives on SH-SY5Y neuronal cells, the cells were treated with various concentrations (0.1–10 μM) of 1,2,3-triazole-based sulfonamide derivatives for 24 h.^29 To assess the neuroprotective activity of 1,2,3-triazole-based sulfonamide derivatives, the cells were pretreated with various concentrations (0.1–10 μM) of 1,2,3-triazole-based sulfonamide derivatives for 3 h before being treated with 50 μM of 6-OHDA for another 24 h. Cell viability was assessed by incubating with 5 mg/mL of MTT reagent for 3 h at 37 °C, followed by absorbance measurement at 570 nm using a microplate reader (Thermo Fisher Scientific Inc., MA, USA). The viability of SH-SY5Y cells at each concentration was analyzed as a percentage relative to the control group.

Data set [3] shares this test system. Nature of the data set: Cellular leakage of LDH enzyme. The following applies: 5 μM pretreatment 3 h, then 50 μM 6-OHDA 24 h, percentage of control. Type of data set: cell-based, Human. The method, then:
Leakage of LDH, an enzyme commonly used as an assessment factor to evaluate cellular damage, was measured to determine the protective ability of the compounds against 6-OHDA-induced neuronal damage. 1.0 × 10^5 cells/mL of SH-SY5Y neuronal cells were seeded into 6-well plates for 24 h. The cells were pretreated with 5 μM of 1,2,3-triazole-based sulfonamide derivatives for 3 h before being treated with 50 μM of 6-OHDA for 24 h. The cell culture medium of SH-SY5Y cells was collected, and LDH leakage was evaluated using the LDH assay kit. In the presence of LDH, lactate is converted into pyruvate, resulting in an elevated level of NADH production, which is determined via the change in absorbance at 450 nm. LDH activity was calculated according to the manufacturer’s instructions and shown as a percentage of the control group.

The test system is the same in data set [4]. Nature of the data set: Intracellular ROS production, H2DCFDA assay. Type of data set: cell-based. The settings on record: Homo sapiens, 5 μM pretreatment 3 h, then 50 μM 6-OHDA 24 h, relative to control. The method, then: ROS production in SH-SY5Y neuronal cells was investigated using H2DCFDA. 1.0 × 10^5 cells/mL of SH-SY5Y neuronal cells were seeded into 96-well plates for 24 h, and 5 μM of selected 1,2,3-triazole-based sulfonamide derivatives were pretreated for 3 h. Then, neurotoxicity of the cells were induced with 50 μM of 6-OHDA for another 24 h. The neuronal cells with 10 μM H2DCFDA were incubated for 30 min at 37 °C in the dark. The emission and excitation wavelengths of 528 nm and 485 nm, respectively, were measured by using a microplate reader. The measured ROS production was calculated as a percentage relative to the control group.

By IC50 is commonly meant the point on the concentration scale where inhibition reaches its midpoint. The low end stands for greater potency, the high end for weaker potency. With `O=c1cc(OCc2cn(-c3ccc(S(=O)(=O)NCCc4ccccc4)cc3)nn2)c2ccccc2o1` [7a], in data set [1], the IC50 is over 99.5 µM.

In data set [1], `O=S(=O)(NCCc1ccccc1)c1ccc(-n2cc(-c3ccccc3)nn2)cc1` [1a] registered an IC50 of 103 ± 1.31 µM.

Regarding `COc1cc2c(cc1OC)CN(S(=O)(=O)c1cccc(-n3cc(COc4ccc5ccc(=O)oc5c4)nn3)c1)CC2` [3c], in data set [1], the IC50 is over 87 µM.

As for `COc1cccc2c1C(=O)c1c(O)c3c(c(O)c1C2=O)C[C@@](O)(C(=O)CO)C[C@@H]3O[C@H]1C[C@H](N)[C@H](O)[C@H](C)O1` [Doxorubicin, reference compound], the half-inhibitory concentration (IC50) in data set [1] came to 2.57 ± 0.36 µM.

`O=c1ccc2ccc(OCc3cn(-c4cccc(S(=O)(=O)N5CCc6ccccc6C5)c4)nn3)cc2o1` [1c]: the IC50 in data set [1] worked out at 14.4 ± 0.34 µM.

`CC(=O)c1ccccc1OCc1cn(-c2ccc(S(=O)(=O)N3CCc4ccccc4C3)cc2)nn1` [5b]: the IC50 in data set [1] was 15.4 ± 1.1 µM.

Turning to `O=[N+]([O-])c1ccc(OCc2cn(-c3ccc(S(=O)(=O)NCCc4ccccc4)cc3)nn2)cc1` [4a], the activity at 5 µM was determined as 92.9 ± 3.19% on SIRT1 and 103 ± 5.15% in data set [4]. The “cell viability of 6-OHDA-induced cells” value was found to be 88.68 ± 3.959% in data set [2] (pretreatment 1 μM 3 h) and 85.48 ± 4.470% in data set [2] (pretreatment 5 μM 3 h). Moreover, the “LDH leakage (LDH activity)” value in data set [3] worked out at 113.3 ± 6.585%. In addition, in data set [1], the IC50 came to 80.4 ± 3.79 µM.

`O=Cc1ccc(OCc2cn(-c3ccc(S(=O)(=O)N4CCc5ccccc5C4)cc3)nn2)cc1` [3b]: the activity at 5 µM at SIRT1 is 94.3 ± 3.28%; in data set [4], 103 ± 5.8%. In addition, the “cell viability of 6-OHDA-induced cells” value in data set [2] (pretreatment 1 μM 3 h) is 89.37 ± 4.597%; in data set [2] (pretreatment 5 μM 3 h), 90.41 ± 7.193%. Besides, the “LDH leakage (LDH activity)” value in data set [3] amounted to 115.6 ± 2.926%. The compound further registered an IC50 in data set [1] of over 105 µM.

Take `Cc1ccccc1OCc1cn(-c2ccc(S(=O)(=O)NCCc3ccccc3)cc2)nn1` [5a]: the figures for the activity at 5 µM (at SIRT1; in data set [4]) were 93.7 ± 2.54% and 104 ± 4.42%, respectively. For the same compound, the “cell viability of 6-OHDA-induced cells” value in data set [2] (pretreatment 1 μM 3 h) worked out at 91.89 ± 9.100%; in data set [2] (pretreatment 5 μM 3 h) it was 90.88 ± 6.158%. Besides, in data set [3], the “LDH leakage (LDH activity)” value worked out at 116.0 ± 2.698%. This compound gave an IC50 in data set [1] of over 111 µM.

In the case of `O=S(=O)(c1ccc(-n2cc(COc3ccccc3)nn2)cc1)N1CCc2ccccc2C1` [1b], the IC50 in data set [1] amounted to 59 ± 3.69 µM.

As to `O=c1ccc2ccc(OCc3cn(-c4ccc(S(=O)(=O)NCCc5ccccc5)cc4)nn3)cc2o1` [6a], half-maximal inhibition in data set [1] (IC50) was put at 55.3 ± 1.45 µM.

In the case of `Cc1ccccc1OCc1cn(-c2ccc(S(=O)(=O)N3CCc4ccccc4C3)cc2)nn1` [4b], the activity at 5 µM on SIRT1 turned out to be 91.06 ± 0.589%; in data set [4], 102 ± 5.64%. The “cell viability of 6-OHDA-induced cells” value was determined as 88.69 ± 4.465% in data set [2] (pretreatment 1 μM 3 h) and 84.03 ± 1.563% in data set [2] (pretreatment 5 μM 3 h). Besides, the “LDH leakage (LDH activity)” value in data set [3] turned out to be 113.5 ± 2.954%. For the same compound, in data set [1], the IC50 came to 19 ± 0.89 µM.

`Cc1ccc(OCc2cn(-c3ccc(S(=O)(=O)N4CCc5ccccc5C4)cc3)nn2)cc1` [2b] returned an IC50 in data set [1] of 70.4 ± 6.8 µM.

With `O=Cc1ccc(OCc2cn(-c3ccc(S(=O)(=O)NCCc4ccccc4)cc3)nn2)cc1` [3a], the activity at 5 µM at SIRT1 came to 92.5 ± 1.98%; in data set [4], 103 ± 4.94%. Moreover, the figures for the “cell viability of 6-OHDA-induced cells” value in data set [2] (pretreatment 1 μM 3 h) and in data set [2] (pretreatment 5 μM 3 h) were 85.36 ± 4.615% and 87.69 ± 4.276%, respectively. Moreover, the “LDH leakage (LDH activity)” value in data set [3] is reported as 112.6 ± 2.585%. The same compound showed an IC50 in data set [1] of over 108 µM.

As for `Cc1ccc(OCc2cn(-c3ccc(S(=O)(=O)NCCc4ccccc4)cc3)nn2)cc1` [2a], the activity at 5 µM on SIRT1 turned out to be 91.9 ± 1.45%; in data set [4], 102 ± 4.74%. The “cell viability of 6-OHDA-induced cells” value was found to be 90.11 ± 5.567% in data set [2] (pretreatment 1 μM 3 h) and 89.25 ± 3.236% in data set [2] (pretreatment 5 μM 3 h). In data set [3], the “LDH leakage (LDH activity)” value is 109.8 ± 3.826%. The compound further returned an IC50 in data set [1] of 89.4 ± 2.95 µM.

For the compound `O=c1cc(OCc2cn(-c3ccc(S(=O)(=O)N4CCc5ccccc5C4)cc3)nn2)c2ccccc2o1` [6b], in data set [1], the IC50 was over 97.2 µM.

As for `Oc1ccc(/C=C/c2cc(O)cc(O)c2)cc1` [Resveratrol, reference compound], the activity at 5 µM at SIRT1 is 92.6 ± 1.06%; in data set [4], 101 ± 5.5%. Besides, the “cell viability of 6-OHDA-induced cells” value in data set [2] (pretreatment 0.1 μM (first of four concentrations 0.1–10 μM) 3 h) is 90.01 ± 4.738%; in data set [2] (pretreatment 1 μM 3 h), 88.04 ± 6.146%; in data set [2] (pretreatment 5 μM 3 h), 92.06 ± 9.069%; in data set [2] (pretreatment 10 μM (last of four concentrations 0.1–10 μM) 3 h), 90.47 ± 9.763%. Besides, in data set [3], the “LDH leakage (LDH activity)” value stood at 115.6 ± 2.723%.

In data set [1], `COc1cc2c(cc1OC)CN(S(=O)(=O)c1cccc(-n3cc(COc4cc(=O)oc5ccccc45)nn3)c1)CC2` [4c] gave an IC50 of over 87 µM.

Turning to `COc1ccc(CCNS(=O)(=O)c2ccc(-n3cc(-c4ccccc4)nn3)cc2)cc1OC` [8a], the IC50 in data set [1] was determined as 78.8 ± 8.11 µM.

Turning to `O=c1cc(OCc2cn(-c3cccc(S(=O)(=O)N4CCc5ccccc5C4)c3)nn2)c2ccccc2o1` [2c], the IC50 in data set [1] is over 97.2 µM.
